System: HEK293E cells
Assay: Transient IgG expression, batch titer by ELISA, VPA concentration series (Example 1)
Type: cell-based, Human
Conditions: for Fold increase over control / Batch titer: IgG, day 5 after transfection; for Batch titer: 37° C.
Protocol: 10 million suspension-adapted HEK293E cells were resuspended in 0.5 ml of Ex-Cell 293 HEK 293 serum-free medium with 4 mmol/l L-glutamine (Cat. No. 14571C-1000 M; Lot No. 6A0093; SAFC Biosciences, Lenexa, Kans., USA, “Ex-Cell” medium; note: “Ex-Cell” medium-as used herein-refers to a medium comprising 4 mmol/l L-glutamine) in a 50-ml filter tube each (TPP AG, Trasadingen, Switzerland; Cat. No. 87050, Lot 20050174). In a separate set, 10 million suspension-adapted CHO DG44 cells were resuspended in 0.5 ml of ProCHO5 serum-free medium with 4 mmol/[…] hypoxanthine and 0.194 g/l thymidine (BioWhittaker (Lonza), Belgium; Cat. No. BE12-[…]; Lot No. 7 MB0040; “ProCHO5” medium; note: “ProCHO5” medium-as used herein-refers to a medium comprising 4 mmol/[…] hypoxanthine and 0.194 g/l thymidine) in a 50-ml filter tube each (TPP AG, Trasadingen, Switzerland; Cat. No. 87050, Lot 20050174). Then 12.5 μg plasmid DNA at a concentration of 1 μg/μl was added in each tube with the following composition 50% (6.25 μg) p-LC (SEQ ID NO: 1) 50% (6.25 μg) p-HC (SEQ ID NO: 3). Plasmid p-LC comprises the genetic information for the production of the light chain of an IgG antibody, plasmid p-HC comprises the genetic information for the production of the heavy chain of an IgG antibody. The particular vector constructs used in the present invention can also be obtained from the inventors. The inventors can be contacted via e-mail at […]. Moreover, commercial services do exist that produce any desired nucleotide sequence even comprising several kilobase pairs including complete expression cassettes in plasmid backgrounds (e.g., Invitrogen, Carlsbad, USA; Geneart, Germany.) Thus, providing the genetic sequence information of the plasmids should enable one of ordinary skill in the art to order the plasmids of the present invention at one of the commercial services listed. After shortly mixing the DNA with the cells by gentle shaking, 25 μg of 25-kd linear polyethyleneimine (“PEI”; Polysciences, Eppelheim, Germany; [2]) were added at a concentration of 1 μg/μl to each of the tubes. After shortly mixing by gentle shaking, the filter tubes containing the cells together with the DNA and PEI were transferred into an orbital shaker (Kühner Shaker Cabinet ISF-4-W, “Kühner shaker”, Kühner AG, Birsfelden, Switzerland), and the cells were incubated for 4 hours at 37° C. in a 5% CO2 atmosphere under shaking at 180 rpm. After that time, 4.5 ml of Ex-Cell medium were added to each of the filter tubes containing HEK 293 cells and 4.5 ml of Pro-CHO5 were added to each of the filter tubes containing CHO DG44 cells. Then, valproic acid was added to each of the tubes at the corresponding final concentration. The cells then were returned into the Kühner shaker and incubated at 37° C. in a 5% CO2 atmosphere under shaking at 180 rpm. […] The ELISA was performed as published in prior art. In short, Goat anti-human kappa light chain IgG (Biosource) was used for coating the ELISA-plates, and with AP-conjugated goat anti-human gamma chain IgG (Biosource) the synthesized IgG1 was detected. NPP was used as a substrate for the alkaline phosphatase. Absorption was measured at 405 nm against 490 nm using a microplate reader (SPECTRAmaxTM340; Molecular Devices, Palo Alto, Calif., USA).

CCCC(CCC)C(=O)O [VPA, valproic acid]
Fold increase over control (1.3 mmol/l final VPA): 2.2 fold
Batch titer (1.3 mmol/l final VPA): 33.0 ± 4.3 mg/L
Fold increase over control (2.5 mmol/l final VPA): 4.1 fold
Batch titer (2.5 mmol/l final VPA): 61.8 ± 5.7 mg/L
Fold increase over control (4 mmol/l final VPA): 5.3 fold
Batch titer (4 mmol/l final VPA): 79.5 ± 3.6 mg/L
Fold increase over control (5 mmol/l final VPA): 4.3 fold
Batch titer (5 mmol/l final VPA): 64.5 ± 6.5 mg/L
Fold increase over control (7.5 mmol/l final VPA): 1.8 fold
Batch titer (7.5 mmol/l final VPA): 27.0 ± 3.1 mg/L
Fold increase over control (11.3 mmol/l final VPA): 0.9 fold
Batch titer (11.3 mmol/l final VPA): 13.5 ± 2.1 mg/L
optimal final concentration (for batch titer, HEK293E cells, day 5): around 4 mmol/l
